Assay results published in US20240294531A1, “COVALENT HETEROCYCLES AND USES THEREOF” (Kumquat Biosciences Inc., priority 2022, published 2024).

Key:
[1] = molecular target: BTK wildtype protein (Homo sapiens (Human), UniProt Q06187); experiment: BTK wildtype HTRF displacement assay; format: binding; details: 1-hour incubation; read-out: BTK (wt) IC50
Procedure: (§1) The ability of a compound to bind BTK wildtype or BTK C481S proteins was measured using an HTRF displacement assay. The assay measures the ability of a compound to displace a tracer ligand bound to the active site of BTK wildtype or BTK C481 S proteins.
(§2) Test compounds were prepared as 10 mM stock solutions in DMSO (Fisher cat #BP231-100). Compounds to be assayed were dispensed using an Echo 650 acoustic dispenser (Beckman Coulter) on a 384 well plate in 6 doses applying four-fold dilutions from the highest concentration of 5 μM. N-terminal GST-tagged recombinant full-length BTK wildtype protein and BTK C481 S protein 2-659 were purchased from Carna Biosciences, Inc (Kobe, Japan). BTK wildtype or BTK C481S protein was separately incubated with compound in assay buffer containing kinase tracer 239 (Thermo Fisher) and Mab anti GST-Th (PerkinElmer). After a 1-hour incubation at room temperature, the HTRF signal was measured using SPARK plate reader (Tecan) using the TR fluorescence mode. The HTRF ratio is calculated for DMSO, no protein control and compound samples using the following equation: HTRF ratio=Emmision665/Emmision620×10^4. The signal for the no protein control samples was used to subtract background noise from the DMSO and compound samples. Background subtracted HTRF ratios are used to calculate the percent inhibition, where DMSO controls are set to 0 percent inhibition. The percent inhibition is plotted as a function of compound concentration and IC50 values were calculated from a four-parameter logistic fit in Prism v9.4 (GraphPad), where the bottom and top are constrained to 0 and 100, respectively.

[2] = molecular target: BTK C481S protein (Homo sapiens (Human), UniProt Q06187, C481S); experiment: BTK C481S HTRF displacement assay; format: binding; details: 1-hour incubation
Sequence of BTK C481S protein (Q06187 2-659 C481S): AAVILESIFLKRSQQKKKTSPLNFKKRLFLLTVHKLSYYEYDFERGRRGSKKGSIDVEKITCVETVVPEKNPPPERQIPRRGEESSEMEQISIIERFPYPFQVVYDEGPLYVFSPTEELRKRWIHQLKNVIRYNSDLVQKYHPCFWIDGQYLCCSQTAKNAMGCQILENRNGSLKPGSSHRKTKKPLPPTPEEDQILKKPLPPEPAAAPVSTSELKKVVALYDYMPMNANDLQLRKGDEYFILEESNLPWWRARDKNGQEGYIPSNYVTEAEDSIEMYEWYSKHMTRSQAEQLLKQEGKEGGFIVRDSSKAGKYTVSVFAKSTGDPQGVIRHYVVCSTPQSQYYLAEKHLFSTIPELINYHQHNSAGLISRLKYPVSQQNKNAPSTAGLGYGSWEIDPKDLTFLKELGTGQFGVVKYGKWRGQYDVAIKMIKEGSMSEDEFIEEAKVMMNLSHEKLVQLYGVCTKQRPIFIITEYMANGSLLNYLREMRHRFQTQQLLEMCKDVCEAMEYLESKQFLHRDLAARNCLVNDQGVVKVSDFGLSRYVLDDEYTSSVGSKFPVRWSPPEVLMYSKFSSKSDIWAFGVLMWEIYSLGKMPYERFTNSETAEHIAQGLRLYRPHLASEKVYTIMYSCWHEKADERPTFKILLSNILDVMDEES
Procedure: as §1, §2
The same assay was used to measure the activity of selected compounds of the formula TBM-L-hydrogen. Using the IC50 value observed for a given reversible test compound, the KI of the test compound can be assessed using the formula KI=IC50/(1+([Tracer]/Kd)), wherein the tracer concentration in the assay [Tracer] is 50 nM and the tracer Kd for BTK C481S is 54 nM.

Sequence of BTK wildtype protein (Q06187 2-659): as the sequence (Q06187 2-659 C481S) above, with S480C counted along it

| SMILES | IC50 [1] [nM] | IC50 [2] [nM] |
| --- | --- | --- |
| COc1ccc(F)cc1C(=O)NCc1ccc(-c2nn(C[C@H](C)N(C)C(=O)n3cncn3)c3ncnc(N)c23)cc1 [Compound 315, (S)-N-(1-(4-amino-3-(4-((5-fluoro-2-methoxybenzamido)methyl)phenyl)-1H-pyrazolo[3,4-d]pyrimidin-1-yl)propan-2-yl)-N-methyl-1H-1,2,4-triazole-1-carboxamide] | > 1000 | > 1000 |
| NC(=O)c1c(-c2ccc(Oc3ccccc3)cc2)nn(C[C@@H]2CCCCN2C(=O)n2cncn2)c1N [Compound 184, (S)-1-((1-(1H-1,2,4-triazole-1-carbonyl)piperidin-2-yl)methyl)-5-amino-3-(4-phenoxyphenyl)-1H-pyrazole-4-carboxamide] | ≤ 1000 | ≤ 1000 |
| COc1ccc(F)cc1C(=O)NCc1ccc(-c2nn(CC3CCCCCN3C(=O)n3cncn3)c3ncnc(N)c23)cc1 (stereo not shown) [Compound 174, N-(4-(1-((1-(1H-1,2,4-triazole-1-carbonyl)azepan-2-yl)methyl)-4-amino-1H-pyrazolo[3,4-d]pyrimidin-3-yl)benzyl)-5-fluoro-2-methoxybenzamide] | > 1000 | > 1000 |
| CC1CC(n2nc(-c3ccc(Oc4ccccc4)cc3)c3c(N)ncnc32)CC(C)N1C(=O)n1cncn1 (stereo not shown) [Compound 101, (4-(4-amino-3-(4-phenoxyphenyl)-1H-pyrazolo[3,4-d]pyrimidin-1-yl)-2,6-dimethylpiperidin-1-yl)(1H-1,2,4-triazol-1-yl)methanone] | ≤ 1000 | ≤ 1000 |
| CCC(CN(C)C(=O)n1cncn1)n1nc(-c2ccc(CNC(=O)c3cc(F)ccc3OC)cc2)c2c(N)ncnc21 (stereo not shown) [Compound 176, N-(2-(4-amino-3-(4-((5-fluoro-2-methoxybenzamido)methyl)phenyl)-1H-pyrazolo[3,4-d]pyrimidin-1-yl)butyl)-N-methyl-1H-1,2,4-triazole-1-carboxamide] | > 1000 | > 1000 |
| NC(=O)c1c(-c2ccc(Oc3ccccc3)cc2)nn(C2CCCCN(C(=O)n3cncn3)C2)c1N (stereo not shown) [Compound 159, 1-(1-(1H-1,2,4-triazole-1-carbonyl)azepan-3-yl)-5-amino-3-(4-phenoxyphenyl)-1H-pyrazole-4-carboxamide] | ≤ 1000 | ≤ 1000 |
| CN(CCC1CCNc2c(-c3ccc(Oc4ccccc4)cc3)c(C(N)=O)nn21)C(=O)n1cncn1 (stereo not shown) [Compound 167, 7-(2-(N-methyl-1H-1,2,4-triazole-1-carboxamido)ethyl)-3-(4-phenoxy-phenyl)-4,5,6,7-tetrahydro-pyrazolo[1,5-a]pyrimidine-2-carboxamide] | > 1000 | > 1000 |
| CCN(C(=O)n1cncn1)C1CCC(n2nc(-c3ccc(Oc4ccccc4)cc3)c3c(N)ncnc32)C1 (stereo not shown) [Compound 179, N-(3-(4-amino-3-(4-phenoxyphenyl)-1H-pyrazolo[3,4-d]pyrimidin-1-yl)cyclopentyl)-N-ethyl-1H-1,2,4-triazole-1-carboxamide] | ≤ 1000 | ≤ 1000 |
| COc1ccc(F)cc1C(=O)NCc1ccc(-c2nn(C(Cc3ccccn3)CN(C)C(=O)n3cncn3)c3ncnc(N)c23)cc1 (stereo not shown) [Compound 268, N-(2-(4-amino-3-(4-((5-fluoro-2-methoxybenzamido)methyl)phenyl)-1H-pyrazolo[3,4-d]pyrimidin-1-yl)-3-(pyridin-2-yl)propyl)-N-methyl-1H-1,2,4-triazole-1-carboxamide] | > 1000 | > 1000 |
| NC(=O)c1c(-c2ccc(Oc3ccccc3)cc2)nn2c1NCC1CCN(C(=O)n3cncn3)CC12 (stereo not shown) [Compound 288, 2-(4-phenoxyphenyl)-8-(1H-1,2,4-triazole-1-carbonyl)-4,5,5a,6,7,8,9,9a-octahydropyrazolo[1,5-a]pyrido [4,3-e]pyrimidine-3-carboxamide] | ≤ 1000 | ≤ 1000 |
| NC(=O)c1c(-c2ccc(Oc3ccccc3)cc2)nn2c1NCCC2C1CCN(C(=O)n2cncn2)C1 (stereo not shown) [Compound 282, 7-(1-(1H-1,2,4-triazole-1-carbonyl)pyrrolidin-3-yl)-2-(4-phenoxyphenyl)-4,5,6,7-tetrahydropyrazolo[1,5-a] pyrimidine-3-carboxamide] | ≤ 1000 | ≤ 1000 |
| NC(=O)c1c(-c2ccc(Oc3ccccc3)cc2)nn(C2CCCN(C(=O)n3cncn3)C2)c1N (stereo not shown) [Compound 163, 1-(1-(1H-1,2,4-triazole-1-carbonyl)piperidin-3-yl)-5-amino-3-(4-phenoxyphenyl)-1H-pyrazole-4-carboxamide] | ≤ 1000 | ≤ 1000 |
| COCCC(Cn1nc(-c2ccc(CNC(=O)c3cc(F)ccc3OC)cc2)c2c(N)ncnc21)N(C)C(=O)n1cncn1 (stereo not shown) [Compound 214, N-(1-(4-amino-3-(4-((5-fluoro-2-methoxybenzamido)methyl)phenyl)-1H-pyrazolo[3,4-d]pyrimidin-1-yl)-4-methoxy-butan-2-yl)-N-methyl-1H-1,2,4-triazole-1-carboxamide] | > 1000 | > 1000 |

Other lines, results leading:

| IC50 [1] [nM] | IC50 [2] [nM] | SMILES |
| --- | --- | --- |
| ≤ 1000 | > 1000 | COc1ccc(F)cc1C(=O)NCc1ccc(-c2nn(C(CCN(C)C(=O)n3cncn3)C3CC3)c3ncnc(N)c23)cc1 (stereo not shown) [Compound 161] |
| ≤ 1000 | ≤ 1000 | COc1ccc(F)cc1C(=O)NCc1ccc(-c2nn(CCCN(C(=O)n3cncn3)C3CC3)c3ncnc(N)c23)cc1 [Compound 287, N-(3-(4-amino-3-(4-((5-fluoro-2-methoxybenzamido)methyl)phenyl)-1H-pyrazolo[3,4-d]pyrimidin-1-yl)propyl)-N-cyclopropyl-1H-1,2,4-triazole-1-carboxamide] |
| > 1000 | > 1000 | NC(=O)c1c(-c2ccc(Oc3ccccc3)cc2)nn2c1NCCC2CN(C(=O)n1cncn1)C1CC1 (stereo not shown) [Compound 240, 7-((N-cyclopropyl-1H-1,2,4-triazole-1-carboxamido)methyl)-2-(4-phenoxyphenyl)-4,5,6,7-tetrahydro-pyrazolo[1,5-a]pyrimidine-3-carboxamide] |
| ≤ 1000 | ≤ 1000 | Cc1[nH]c2c(C(N)=O)cc(F)c(N3CCCC(N(C)C(=O)n4cncn4)C3)c2c1C (stereo not shown) [Compound 262, 5-fluoro-2,3-dimethyl-4-(3-(N-methyl-1H-1,2,4-triazole-1-carboxamido)piperidin-1-yl)-1H-indole-7-carboxamide] |
| > 1000 | > 1000 | CN(C(=O)n1cncn1)C1CCC2C(CNc3c(C(N)=O)c(-c4ccc(Oc5ccccc5)cc4)nn32)C1 (stereo not shown) [Compound 131, 7-(N-methyl-1H-1,2,4-triazole-1-carboxamido)-2-(4-phenoxyphenyl)-4,5,5a,6,7,8,9,9a-octahydropyrazolo [1,5-a]quinazoline-3-carboxamide] |
| ≤ 1000 | ≤ 1000 | COc1ccc(C)cc1C(=O)NCc1ccc(-c2nn(C3CCCC(N(C)C(=O)n4cncn4)C3)c3ncnc(N)c23)cc1 (stereo not shown) [Compound 215, N-(3-(4-amino-3-(4-((2-methoxy-5-methylbenzamido)methyl)phenyl)-1H-pyrazolo[3,4-d]pyrimidin-1-yl)cyclohexyl)-N-methyl-1H-1,2,4-triazole-1-carboxamide] |
| > 1000 | > 1000 | COc1ccc(F)cc1C(=O)NCc1ccc(-c2nn(C(C)CC3CCCCN3C(=O)n3cncn3)c3ncnc(N)c23)cc1 (stereo not shown) [Compound 129, N-(4-(1-(1-(1-(1H-1,2,4-triazole-1-carbonyl)piperidin-2-yl)propan-2-yl)-4-amino-1H-pyrazolo[3,4-d]pyrimidin-3-yl)benzyl)-5-fluoro-2-methoxybenzamide] |
